From patent publication US20070179152A1, “Combination therapy for the treatment of neoplasms” (priority 2003, published 2007) come the findings set out here.

What is called inhibition is the change of the read-out against control, counted positive when it falls.

Format in all cases: cell-based
The test system of one assay is DU145 cells. Put plainly: Anti-proliferation assay (Alamar Blue metabolism), DU145. The note with it: Homo sapiens, DU-145; read-out: Percent inhibition of Alamar Blue Metabolism. As to the method:
(§1) Itraconazole was obtained from […].). Stock solutions (1000×) of each compound were prepared in DMSO and stored at -20° C. Master stock plates of 2-fold serial dilutions of individual compounds were prepared in 384-well plates. Combination matrices of test compounds were generated from these master stock plates by dilution into growth media described above. […] The combination matrices were used immediately and discarded. The anti-proliferation assays were performed in 384 well plates. […] Cells were diluted in culture media such that 3,000 SKMEL cells, or 1,500 cells for all the other cell lines, were delivered in 35 μl of media into each assay well. […] Then, 4.5 μl of 10× stock solutions from the combination matrices were added to 40 μl of culture media. […] Quantification, using the LJL Analyst AD reader (LJL Biosystems), was taken in the middle of the well with high attenuation, a 100 msec read time, an excitation filter at 530 nm, and an emission filter at 575 nm. For some experiments, quantification was performed using a Wallac Victor^2 reader. Measurements were taken at the top of the well with stabilized energy lamp control; a 100 msec read time, an excitation filter at 530 nm, and an emission filter at 590 nm.

The test system of the next assay is A549 cells. Put plainly: Anti-proliferation assay (Alamar Blue metabolism), A549. The note with it: Homo sapiens, read-out: Percent inhibition of Alamar Blue Metabolism. As to the method: as §1
On the technique in general: Resazurin is reduced to fluorescent resorufin, in cell work by metabolically active cells.

A further assay concerns HCT116 cells. In words: Anti-proliferation assay (Alamar Blue metabolism), HCT116. The note with it: Homo sapiens, read-out: Percent inhibition of Alamar Blue Metabolism. As to the method:
as §1

Another assay deals with SKMEL-28 cells. In words: Anti-proliferation assay (Alamar Blue metabolism), SKMEL-28. The following applies: Homo sapiens, SK-MEL-28; read-out: Percent inhibition of Alamar Blue Metabolism. As to the method: as §1

The structures appear in SMILES notation. Where a name gives a salt, the structure may show the parent alone. Read-outs that look alike come from different tables or passages of the source.

Turning to `CCC(C)n1ncn(-c2ccc(N3CCN(c4ccc(OCC5COC(Cn6cncn6)(c6ccc(Cl)cc6Cl)O5)cc4)CC3)cc2)c1=O` (centres unmarked) [Itraconazole, itraconazole], the inhibition at 0.44 µM was -1.6% with DU145 cells; 3.7% with A549 cells; -2.8% with HCT116 cells (HCT-116, amiodarone 0 μM, itraconazole 0.44 μM); -1.4% with HCT116 cells (HCT-116, itraconazole 0.44 μM, bepridil 0 μM); -0.5% in the assay with HCT116 cells (HCT-116, itraconazole 0.44 μM, nicardipine 0 μM); 1.5% in the assay on SKMEL-28 cells. Also, the inhibition at 0.87 µM with DU145 cells is 4.9%; in the assay on A549 cells, 11.5%; in the assay with HCT116 cells (HCT-116, amiodarone 0 μM, itraconazole 0.87 μM), 1.9%; with HCT116 cells (HCT-116, itraconazole 0.87 μM, bepridil 0 μM), 13.3%; in the assay on HCT116 cells (HCT-116, itraconazole 0.87 μM, nicardipine 0 μM) it was 12.3%; in the assay on SKMEL-28 cells, 4.4%. For the same compound, the inhibition at 1.7 µM in the assay with DU145 cells was -4.2%; in the assay on A549 cells, 2.8%; in the assay with HCT116 cells (HCT-116, amiodarone 0 μM, itraconazole 1.7 μM), 8.5%; in the assay on HCT116 cells (HCT-116, itraconazole 1.7 μM, bepridil 0 μM) it was 26.4%; in the assay with HCT116 cells (HCT-116, itraconazole 1.7 μM, nicardipine 0 μM) it was 15.4%; with SKMEL-28 cells, 6.6%. The inhibition at 3.5 µM in the assay with DU145 cells is -10.1%; with A549 cells it was 8%; in the assay on HCT116 cells (HCT-116, amiodarone 0 μM, itraconazole 3.5 μM), 17.5%; in the assay on HCT116 cells (HCT-116, itraconazole 3.5 μM, bepridil 0 μM), 30.3%; in the assay on HCT116 cells (HCT-116, itraconazole 3.5 μM, nicardipine 0 μM), 20.1%; in the assay on SKMEL-28 cells, 10.4%. Further, the inhibition at 7 µM with DU145 cells was -13%; in the assay on A549 cells it was 6.3%; with HCT116 cells (HCT-116, amiodarone 0 μM, itraconazole 7 μM) it was 20.4%; in the assay with HCT116 cells (HCT-116, itraconazole 7 μM, bepridil 0 μM), 33.1%; in the assay on HCT116 cells (HCT-116, itraconazole 7 μM, nicardipine 0 μM), 32.7%; in the assay with SKMEL-28 cells, 12.6%. Moreover, the inhibition at 14 µM in the assay with DU145 cells was -4.3%; with A549 cells, 7.4%; in the assay on HCT116 cells (HCT-116, amiodarone 0 μM, itraconazole 14 μM), 19.1%; in the assay with HCT116 cells (HCT-116, itraconazole 14 μM, bepridil 0 μM) it was 17.8%; with HCT116 cells (HCT-116, itraconazole 14 μM, nicardipine 0 μM) it was 19.8%; in the assay with SKMEL-28 cells, 14%. The inhibition at 28 µM in the assay with DU145 cells was -4.6%; in the assay on A549 cells it was 9.7%; with HCT116 cells (HCT-116, amiodarone 0 μM, itraconazole 28 μM), 16%; in the assay with HCT116 cells (HCT-116, itraconazole 28 μM, bepridil 0 μM) it was 17.2%; in the assay with HCT116 cells (HCT-116, itraconazole 28 μM, nicardipine 0 μM), 22.4%; with SKMEL-28 cells it was 15%. Also, the inhibition at […] in the assay on HCT116 cells (HCT-116, amiodarone 0 μM, itraconazole […]) is -0.7%; in the assay on HCT116 cells (HCT-116, itraconazole […], bepridil 0 μM), 5.8%; in the assay on HCT116 cells (HCT-116, itraconazole […], nicardipine 0 μM) it was 3%.
Consider `COC(=O)C1=C(C)NC(C)=C(C(=O)OCCN(C)Cc2ccccc2)C1c1cccc([N+](=O)[O-])c1` (centres unmarked) [Nicardipine, 2-(benzyl-methylamino)ethyl methyl 1,4-dihydro-2,6-dimethyl-4-(m-nitrophenyl)-3,5-pyridinedicarboxylate monohydrochloride], for which the inhibition at 0.3 µM with HCT116 cells (HCT-116, itraconazole 0 μM, nicardipine 0.3 μM) turned out to be 2.6%. Also, the inhibition at 0.61 µM in the assay on HCT116 cells (HCT-116, itraconazole 0 μM, nicardipine 0.61 μM) was 1.4%. Also, the inhibition at 1.2 µM in the assay on HCT116 cells (HCT-116, itraconazole 0 μM, nicardipine 1.2 μM) was determined as 2.5%. Moreover, the inhibition at 2.4 µM in the assay on HCT116 cells (HCT-116, itraconazole 0 μM, nicardipine 2.4 μM) came to 5.2%. The inhibition at 4.8 µM with HCT116 cells (HCT-116, itraconazole 0 μM, nicardipine 4.8 μM) came to 7.5%. In addition, in the assay on HCT116 cells (HCT-116, itraconazole 0 μM, nicardipine 9.7 μM), the inhibition at 9.7 µM came out at 9.7%. In addition, the inhibition at 19 µM in the assay on HCT116 cells (HCT-116, itraconazole 0 μM, nicardipine 19 μM) was found to be 25.2%. Also, the inhibition at 39 µM in the assay on HCT116 cells (HCT-116, itraconazole 0 μM, nicardipine 39 μM) worked out at 81.7%.
On to `CC(C)COCC(CN(Cc1ccccc1)c1ccccc1)N1CCCC1` (stereo not drawn) [Bepridil, beta-((2-methylpropoxy)methyl)-N-phenyl-N-(phenylmethyl)-1-pyrrolidineethanamine], for which, in the assay on HCT116 cells (HCT-116, itraconazole 0 μM, bepridil 1.5 μM), the inhibition at 1.5 µM was 5.1%. Further, in the assay on HCT116 cells (HCT-116, itraconazole 0 μM, bepridil 3 μM), the inhibition at 3 µM is 17.4%. Further, the inhibition at 6.1 µM with HCT116 cells (HCT-116, itraconazole 0 μM, bepridil 6.1 μM) is 54%. Besides, the inhibition at 12 µM in the assay with HCT116 cells (HCT-116, itraconazole 0 μM, bepridil 12 μM) came to 33.2%. Moreover, the inhibition at 24 µM in the assay on HCT116 cells (HCT-116, itraconazole 0 μM, bepridil 24 μM) is 79%. The inhibition at 48 µM with HCT116 cells (HCT-116, itraconazole 0 μM, bepridil 48 μM) was found to be 96.4%.
